Experiment: method code SF-AS, from DOI: 10.1016/s0021-9673(00)82338-9
Conditions: pH 9.0

| SMILES | logD |
| --- | --- |
| O=[N+]([O-])c1cncn1CCN1CCOCC1 | 0.07 |
| Cc1ncc([N+](=O)[O-])n1CC(O)Cn1c([N+](=O)[O-])cnc1C | 0.31 |
| CN1CCN(Cc2ncc([N+](=O)[O-])n2C)CC1 | -0.32 |
| O=[N+]([O-])c1cnc(C=Cc2ccc3c(c2)OCO3)n1CCO | 2.03 |
| Cc1ncc([N+](=O)[O-])n1CC(=O)N1C=CN(C(=O)Cn2c([N+](=O)[O-])cnc2C)C=C1 | -0.7 |

Continued, values first:

| logD | SMILES |
| --- | --- |
| -0.03 | Cn1c([N+](=O)[O-])cnc1CO |
| -0.38 | Cn1c([N+](=O)[O-])cnc1COC(N)=O |
| -0.69 | Cn1c([N+](=O)[O-])cnc1C=O |
| 1 | Cn1c([N+](=O)[O-])cnc1C1CC1 |

Reference: the SangsterLogP compilation
